The values below come from PMC11513920, “Building Metabolically Stable and Potent Anti-HIV Thioether-Lipid Analogues of Tenofovir Exalidex: A thorough Pharmacological Analysis” (Journal of Medicinal Chemistry, 2024).

Data set [1] in a line: Human plasma stability. The format is in vitro ADME. The note with it: for remaining at 4 h, 3 μM / half-life at 3 μM: both sexes, human, plasma; for half-life at 3 μM: 37 °C, 240 min course, read-out: human plasma t1/2. On the procedure:
(§1) Human plasma (lithium heparin (LiHep) mixed, gender pooled, 0.2 μm filtered) and mouse plasma (BALB/C, LiHep mixed, male pooled, 0.2 μm filtered) were purchased from BioIVT. Procaine (Sigma-Aldrich) served as a positive control for both human and mouse plasma experiments. […] Next, the human or mouse plasma (994 μL) was aliquoted into 1.5 mL Eppendorf tubes with duplicates (reactions A and B) being prepared for each compound. The plasma was then incubated at 37 °C for 10 min. […] This procedure provided duplicate experiments with a final volume of 1000 μL (<0.2% organic solvent content) and a final test compound concentration of 3 μM. Aliquots (100 μL) were removed from each reaction mixture at 0, 30, 60, 120, and 240 min time intervals and quenched with 150 μL of cold ISTD solution (2 μM 7-ethoxy-d5-coumarin in MeOH). […] The positive control reaction was conducted at a final volume of 1000 μL for a single run of each time point. Finally, the negative control experiment was conducted with test compounds in Dulbecco’s phosphate buffered saline without calcium and magnesium (DPBS, Fisher Scientific, 143 μL) and analyzed at the 240 min time point.
(§2) Plasma Stability Assay Setup Example
(§3) Test Compound: 994 µL Human or Mouse Plasma + 6.0 µL TC (500 µM, Vial A).
(§4) 994 µL Human or Mouse Plasma + 6.0 µL TC (500 µM, Vial B).
(§5) Positive Control: 994 µL Human or Mouse Plasma + 6.0 µL Procaine (500 µM).
(§6) Negative Control: 142 µL DPBS (1X, pH 7.1-7.3) + 0.9 µL TC (500 µM).
(§7) Quenching Mixture: 150 µL MeOH with ISTD (2 µM d5-7-ethoxycoumarin).
(§8) Final Volume After Quenching: 250 µL (100 µL from reaction mixture and 150 µL quencher
solution; ISTD final concentration of 1.2 µM).
Human Plasma Stability of Compound 2a at 37 °C
Figure S29. In vitro human plasma stability of 2a (5 points over 240 min) with procaine serving

The nature of data set [2]: HepaRG cellular uptake. To be noted: human, HepaRG Cmax, 20 μM, HSA formulation 5:1, recorded after 3 h incubation.
Excerpt: (§9) Naturally, due the metabolic complexity of HepaRG cells, we specifically analyzed prodrug cellular uptake and stability, as represented by Cmax and intrinsic clearance (Clint,u) accordingly (Figure 7 and Table 9).
(§10) The HepaRG cell line (HPRGC10, Thermo Fisher Scientific) was used to evaluate the cellular permeability and metabolic stability for select final compounds in vitro. The cells were initially thawed with working media composed of HepaRG Thaw, Plate, & General Purpose Medium Supplement (HPRG670), Williams Medium E (100 mL), and GlutaMax (1 mL), all purchased from Thermo Fisher Scientific. […] After the thawing medium was aspirated from each well, the cells were cultured for an additional 6 days with working media consisting of HepaRG Maintenance/Metabolism Medium Supplement (HPRG720), Williams Medium E (500 mL), and GlutaMax (1 mL), all purchased from Thermo Fisher Scientific. Upon completing the 7-day culture period, HepaRG cells were plated in enough wells to allow for duplicate analysis of prodrugs in two independent cellular uptake or metabolic stability experiments. All studied compounds were formulated with human serum albumin (HSA, 5:1 compound to HSA molar ratio) and subsequently diluted to a 20 μM final concentration with assay medium composed of serum-free INVITROGRO HI Medium and TORPEDO Antibiotic Mix purchased from BioIVT. For cellular uptake determinations, the maintenance/metabolism medium was first aspirated from each well, and then the plated cells were spiked with 1.0 mL of test compound stock solution. Subsequently, the plate was incubated at 37 °C under 5% CO2 environment over the desired time course (seven data points/compound). Blank wells not treated with prodrug were included in assay runs as controls and initial time points (0 min). At each time point, the test compound solution was removed from the appropriate wells, and the plated cells were washed with 1.0 mL of DPBS twice. The HepaRG cells were then extracted with 500 μL of cold ISTD solution (1 μM 7-ethoxy-d5-coumarin in 70/30 MeOH/H2O), and the quenched aliquots were centrifuged at 15,000 g for 10 min at 4 °C. […] After obtaining prodrug Cmax and Tmax values from the cellular uptake assay, HepaRG metabolic stability was then assessed. Following the initial 7-day culture procedure, the maintenance/metabolism medium was aspirated from each well, and the plated cells were spiked with 1.0 mL of test compound stock solution. […] The test compound solution was then removed from each well and replaced with untreated dilution medium (i.e., serum-free INVITROGRO HI Medium and TORPEDO Antibiotic Mix), initializing the stability determination. The HepaRG plate was once more incubated at 37 °C under 5% CO2 atmosphere over the desired time course (nine data points/compound), and sample preparation and analysis were handled in identical fashion to cellular uptake experiments.
In data set [3] the test system is HepaRG cells. The data set can be described thus: HepaRG cellular uptake. To be noted: for mean prodrug concentration in HepaRG cells: 20 µM; for HepaRG Cmax: 20 μM, HSA formulation 5:1, recorded after 3 h incubation.
Excerpt: as §9, §10
The nature of data set [4]: Mouse plasma stability. The format is in vitro ADME. The note with it: for mouse plasma t1/2: 3 μM, 37 °C, 240 min course; for remaining at 4 h, 3 μM / half-life at 3 μM: male, BALB/C, mouse, plasma; for half-life at 3 μM: read-out: in vitro mouse plasma stability t1/2. On the procedure: as §1, §2, §3, §4, §5, §6, §7, §8
solution; ISTD final concentration of 1.2 µM). […]

A short description of data set [5]: HepaRG cellular metabolic stability. The note with it: human, other cell line; for hepatocyte CLint at 20 μM: HepaRG Clint,u, calculated from cellular t1/2; for half-life at 20 μM: HepaRG t1/2, after 3 h loading at 20 μM, 37 °C.
Excerpt: as §9, §10
The nature of data set [6]: Human liver microsome stability. To be noted: for remaining at 2 h, 3 μM / half-life at 3 μM: human, microsomes; for remaining at 2 h, 3 μM: HLM % remaining, relative percent remaining of prodrug at 120 min; for half-life at 3 μM: HLM t1/2, HLM 1 mg/mL. Here is the method:
Human liver microsomes (HLMs, 20 mg/mL) and CD-1 mouse liver microsomes (MLMs, 20 mg/mL) were purchased from Xenotech. NADPH was purchased from Sigma-Aldrich and prepared in 10 mM stock solutions of distilled H2O (Invitrogen UltraPure). […] Test compounds and positive controls were initially dissolved in MeOH to make 10 mM stock solutions. Sample solutions were then further diluted in 70/30 MeOH/H2O to 500 μM. Next, the reactions were prepared by mixing human or mouse liver microsomes (55 μL) with potassium phosphate buffer (100 mM, 928 μL) in 1.5 mL Eppendorf tubes. The test compounds (6.6 μL of 500 μM solution) were subsequently added to the suspensions, and the reaction mixtures were incubated at 37 °C for 5 min. Afterward, the liver microsome reactions were initiated with 110 μL of 10 mM NADPH and further incubated at 37 °C for the designated time course of the study. […] Each test compound was run in tandem with positive and negative control experiments for quality assurance. Positive control reactions were conducted at a final volume of 550 μL for a single run of each time point.
For both LM and plasma stability assays, each data point was analyzed in duplicate using in-between blank washes to avoid carry over and to equilibrate the column for the subsequent runs. Averages of these duplicate for individual compounds at each time point were then normalized to the data at 0 min, representing 100% test compound remaining or 0% metabolism. Half-lives (t1/2) were calculated by plotting ln of % test compound remaining versus time and performing linear regression to determine slope.
Metabolic Stability Assays
Liver Microsome Stability
Liver Microsome Stability Assay Setup Example
Quenching Mixture: 100 µL MeOH with ISTD (2 µM d5-7-ethoxycoumarin).
Final Volume After Quenching: 200 µL (100 µL from reaction mixture + 100 µL quencher
solution; ISTD final concentration of 1.0 µM).
(Liver microsomes are a subcellular fraction often used to study metabolism.)

Where [7] appears, read: relative percent remaining at 240 min.
Setting [8] is: 3 μM compound, NADPH, 37 °C, 120 min course.

SMILES strings stand for the structures. Several values for one entry are separate records, joined by “and”; a condition that tells them apart may be missing. Equal entries are not always repeated.

Broadly, the share remaining is what is left of the initial amount, in per cent. In general, Cmax refers to the peak of the concentration-time curve. As a reminder, the hepatocyte CLint is the rate of metabolic loss divided by the concentration. Regarding `CCCCCCCCCCCCCCCCSCCCOP(=O)(O)CO[C@H](C)Cn1cnc2c(N)ncnc21.N` [2a], the share remaining at 4 h, 3 μM in data set [1] (setting [7]) and in data set [4] (setting [7]) was 95% throughout. The half-life at 3 μM in data set [1] and in data set [4] was more than 4 h in each case. Besides, in data set [1] (setting [7]), the “human plasma % remaining” value is given as more than 95%. The molecule also had a Cmax at 3 h, 20 μM in data set [2] of 828 ± 0.2 ng/mL. Also, the “mean prodrug concentration in HepaRG cells” value (from here on “mean prodrug concentration”) was determined as 467.27 ng/mL in data set [3] (0.5 h); 530.17 ng/mL in data set [3] (1 h); 676.9 ng/mL in data set [3] (2 h); 827.97 ng/mL in data set [3] (3 h); 1004.64 ng/mL in data set [3] (5 h); 994.36 ng/mL in data set [3] (7 h). Moreover, the “mouse plasma t1/2” value in data set [4] is more than 4 h. Also, the “mouse plasma % remaining” value in data set [4] (setting [7]) was more than 95%. Also, the hepatocyte CLint at 20 μM in data set [5] is 14.1 µL/min/1e6 cells. In data set [5], this molecule returned a half-life at 20 μM of 1.49 ± 0.00667 h. Also, in data set [6] (HLM 1 mg/mL, 3 μM compound, NADPH, 37 °C, 120 min course), the “HLM t1/2” value was 0.7 h and 0.695 ± 0.0383 h.
On to `C[C@H](Cn1cnc2c(N)ncnc21)OCP(=O)(O)OCCCSCCCCCCCCCCCCc1ccc(F)cc1.N` [16g], for which the fraction remaining at 4 h, 3 μM in data set [1] (setting [7]) and in data set [4] (setting [7]) was more than 95% throughout. Moreover, the half-life at 3 μM is more than 4 h in data set [1], more than 4 h in data set [4] and more than 2 h in data set [6] (setting [8]). Besides, in data set [2], the Cmax at 3 h, 20 μM worked out at 210 ng/mL. Also, the “mean prodrug concentration” value is reported as 124.04 ng/mL in data set [3] (0.5 h); 162.75 ng/mL in data set [3] (1 h); 178.18 ng/mL in data set [3] (2 h); 209.81 ng/mL in data set [3] (3 h); 203.98 ng/mL in data set [3] (5 h); 229.08 ng/mL in data set [3] (7 h). Moreover, in data set [3], the “HepaRG Cmax” value was 209.8 ± 0.2 ng/mL. Also, in data set [4], the “mouse plasma t1/2” value is more than 4 h. The hepatocyte CLint at 20 μM in data set [5] is 27 µL/min/1e6 cells. The molecule further showed a half-life at 20 μM in data set [5] of 0.783 h. In data set [6], the amount remaining at 2 h, 3 μM is 69%.
With `C[C@H](Cn1cnc2c(N)ncnc21)OCP(=O)(O)OCCCSCCCCCCCCCCCCC1CCCCC1.N` [16h], the amount remaining at 4 h, 3 μM was more than 95% in data set [1] (setting [7]) and 71% in data set [4] (setting [7]). Further, the values for the half-life at 3 μM in data set [1], in data set [4] and in data set [6] (setting [8]) were more than 4 h, more than 4 h and more than 2 h, respectively. This molecule showed a Cmax at 3 h, 20 μM in data set [2] of 1410 ng/mL. In addition, the “mean prodrug concentration” value in data set [3] (0.5 h) was 896.16 ng/mL; in data set [3] (1 h), 911.53 ng/mL; in data set [3] (2 h), 1178.12 ng/mL; in data set [3] (3 h) it was 1412.37 ng/mL; in data set [3] (5 h), 1533.37 ng/mL; in data set [3] (7 h), 1616.17 ng/mL. Further, the “HepaRG Cmax” value in data set [3] is 1412.4 ± 1.5 ng/mL. Moreover, the “mouse plasma t1/2” value in data set [4] is more than 4 h. Moreover, the hepatocyte CLint at 20 μM in data set [5] is 18 to 19 µL/min/1e6 cells. This molecule also gave a half-life at 20 μM in data set [5] of 1.12 to 1.18 h. Moreover, the fraction remaining at 2 h, 3 μM in data set [6] turned out to be 85%.
